We go through three compounds from patent US10757937B2, “Sulfonamides that activate ABA receptors” (The Regents of the University of California, priority 2014, dated 2020).

The first assay addresses T1, PYL4 (Arabidopsis thaliana, UniProt O80920).
T1 construct: 6X-His; made in house; host or cells: E. coli BL21[DE3]pLysS
T1 sequence (O80920 1-207): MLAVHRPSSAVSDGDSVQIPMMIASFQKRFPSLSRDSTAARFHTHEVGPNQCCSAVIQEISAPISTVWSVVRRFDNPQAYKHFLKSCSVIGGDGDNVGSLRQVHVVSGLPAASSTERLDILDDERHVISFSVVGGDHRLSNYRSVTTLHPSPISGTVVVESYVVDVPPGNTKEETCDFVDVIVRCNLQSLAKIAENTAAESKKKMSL
T1 sequence (Q9CAJ0 23-511 partner): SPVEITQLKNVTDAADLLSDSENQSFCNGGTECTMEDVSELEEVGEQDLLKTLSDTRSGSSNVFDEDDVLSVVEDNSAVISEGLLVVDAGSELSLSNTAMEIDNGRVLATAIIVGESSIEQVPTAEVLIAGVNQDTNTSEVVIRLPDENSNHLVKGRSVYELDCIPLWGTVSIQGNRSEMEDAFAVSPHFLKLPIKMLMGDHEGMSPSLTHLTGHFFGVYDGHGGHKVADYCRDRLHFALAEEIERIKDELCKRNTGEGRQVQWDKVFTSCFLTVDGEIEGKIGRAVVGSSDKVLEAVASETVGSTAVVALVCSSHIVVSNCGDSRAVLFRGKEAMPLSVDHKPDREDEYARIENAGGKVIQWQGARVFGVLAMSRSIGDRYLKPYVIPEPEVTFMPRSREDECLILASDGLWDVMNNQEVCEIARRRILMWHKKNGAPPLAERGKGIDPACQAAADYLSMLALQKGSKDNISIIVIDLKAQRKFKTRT
The assay can be described thus: receptor-mediated PP2C (HAB1) inhibition in vitro assay. Format: biochemical. As to conditions: compound at 25 μM; control without agonist = 100%. As for the experimental part: (§1) A family of 62 structurally related N-acyl sulfonamides (Tables I-V) were tested for ABA agonist activity using multiple receptor-mediated PP2C inhibition in vitro assays (Park et al., 2009). […] The constructs utilized for protein expression have been previously described (Okamoto et al. 2013). For constructs encoding 6X-His-fusion proteins (all receptors except PYL11), the coding sequences were of the receptors were cloned in the vector pET28, expressed in BL21[DE3]pLysS E. coli host cells at 18° C. overnight, and subsequently purified from sonicated lysates using Ni-NTA agarose (Qiagen, USA), according to the manufacturer's instructions. PYL11 was constructed as a maltose binding protein fusion in the vector pMAL-c, expressed in BL21┌DE3┐pLysS host cells and purified using amylose resin (New England Biolabs) as described by the manufacturer. Recombinant GST-HAB1 was expressed and purified as described previously (Park et al., 2009). PP2C activity assays were conducted using the fluorogenic phosphatase substrate 4-methylumbelliferyl-phosphate. Recombinant receptors and HAB1 were used to examine ligand-induced PP2C inactivation in response to multiple test compounds. Enzyme inhibition assays were conducted using the following assay conditions: 50 nM GST-PP2C, 100 mM Tris-OAc (pH 7.9), 100 mM NaCl, 1 mM MnCl2, 1% β-mercaptoethanol. […] Because of this, the ratio of each receptor used in the PP2C-inhibitions assays was established empirically as the minimum fold-excess of receptor required to elicit maximal PP2C inhibition at a saturating ABA concentration (10 μM).
(§2) Based on this criterion, we used a ratio of 2:1 receptor in the assays described herein.
(§3) Using the above assay conditions, compounds were tested at 25 μM for agonist activity on PYL4, PYL5, PYL8 and PYL9. […] Consequently, a subset of the compounds was tested at multiple concentrations against 11 receptors so that IC50 values and receptor selectivity profiles could be examined. […] Thus, the N-acylsulfonamide agonists disclosed are selective for monomeric receptors.
(§4) Additional compounds were tested for biological activity following the procedures of Example 1 with minor modifications.
(§5) For these in vitro receptor assays, the compounds listed were tested in in vitro PP2C inhibition assays with 50 uM of the test compound except for ABA (10 uM). IC50s were calculated from dose curves, but only for selected compounds.
`CC(C)(C(=O)NS(=O)(=O)Cc1ccc(C#N)cc1)c1ccc2ccccc2c1` [Compound 54]: the PP2C Activity (25 μm) PYL4 turned out to be 97%.

Consider `COc1ccc(C2(C(=O)NS(=O)(=O)Cc3ccc(C#N)cc3)CCCC2)cc1` [Compound 39], for which the PP2C Activity (25 μm) PYL4 was found to be 98%.

For `CC(C)(C(=O)NS(=O)(=O)Cc1ccc(C#N)cc1)c1ccc2c(c1)OCCO2` [Compound 53], the PP2C Activity (25 μm) PYL4 amounted to 89%.

The target in another assay is T2, PYL8 (Arabidopsis thaliana, UniProt Q9FGM1).
T2 construct: 6X-His; made in house; host or cells: E. coli BL21[DE3]pLysS
T2 sequence (Q9FGM1 1-188): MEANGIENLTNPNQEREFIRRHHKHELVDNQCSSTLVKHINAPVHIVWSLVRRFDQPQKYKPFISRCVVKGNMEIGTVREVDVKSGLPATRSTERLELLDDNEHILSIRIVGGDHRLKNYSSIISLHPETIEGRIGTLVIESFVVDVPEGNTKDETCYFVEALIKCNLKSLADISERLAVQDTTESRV
T2 sequence (Q9CAJ0 23-511 partner): T1 sequence (Q9CAJ0 23-511 partner)
The description is as above. It counts as biochemical. The note with it: compound at 25 μM; control without agonist = 100%. The method, then: as §1, §2, §3, §4, §5
Turning to `CC(C)(C(=O)NS(=O)(=O)Cc1ccc(C#N)cc1)c1ccc2ccccc2c1` [Compound 54], the PP2C Activity (25 μm) PYL8 is 106%.

`COc1ccc(C2(C(=O)NS(=O)(=O)Cc3ccc(C#N)cc3)CCCC2)cc1` [Compound 39] registered a PP2C Activity (25 μm) PYL8 of 71%.

Compound `CC(C)(C(=O)NS(=O)(=O)Cc1ccc(C#N)cc1)c1ccc2c(c1)OCCO2` [Compound 53] came in with a PP2C Activity (25 μm) PYL8 of 99%.

The target in another assay is T3, PYL9 (Arabidopsis thaliana, UniProt Q84MC7).
T3 construct: 6X-His; made in house; host or cells: E. coli BL21[DE3]pLysS
T3 sequence (Q84MC7 1-187): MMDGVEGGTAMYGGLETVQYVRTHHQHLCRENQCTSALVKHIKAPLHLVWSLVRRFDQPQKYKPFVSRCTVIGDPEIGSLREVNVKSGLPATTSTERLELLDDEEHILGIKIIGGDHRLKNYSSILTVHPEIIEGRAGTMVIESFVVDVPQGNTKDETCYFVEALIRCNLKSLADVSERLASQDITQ
T3 sequence (Q9CAJ0 23-511 partner): T1 sequence (Q9CAJ0 23-511 partner)
The assay is described as above. Format: biochemical. As to conditions: compound at 25 μM; control without agonist = 100%. The method, then: as §1, §2, §3, §4, §5
As to `CC(C)(C(=O)NS(=O)(=O)Cc1ccc(C#N)cc1)c1ccc2ccccc2c1` [Compound 54], the PP2C Activity (25 μm) PYL9 stood at 109%.

Regarding `COc1ccc(C2(C(=O)NS(=O)(=O)Cc3ccc(C#N)cc3)CCCC2)cc1` [Compound 39], the PP2C Activity (25 μm) PYL9 stood at 66%.

Consider `CC(C)(C(=O)NS(=O)(=O)Cc1ccc(C#N)cc1)c1ccc2c(c1)OCCO2` [Compound 53], for which the PP2C Activity (25 μm) PYL9 is 98%.

The next assay has as its target T4, PYL5 (Arabidopsis thaliana, UniProt Q9FLB1).
T4 construct: 6X-His; made in house; host or cells: E. coli BL21[DE3]pLysS
T4 sequence (Q9FLB1 1-203): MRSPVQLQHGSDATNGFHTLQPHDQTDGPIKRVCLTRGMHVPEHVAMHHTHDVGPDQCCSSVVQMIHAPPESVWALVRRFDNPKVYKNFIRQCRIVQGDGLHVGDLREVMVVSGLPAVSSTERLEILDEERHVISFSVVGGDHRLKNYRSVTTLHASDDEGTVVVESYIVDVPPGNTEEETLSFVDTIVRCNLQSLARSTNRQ
T4 sequence (Q9CAJ0 23-511 partner): T1 sequence (Q9CAJ0 23-511 partner)
The assay is described as above. It counts as biochemical. As to conditions: compound at 25 μM; control without agonist = 100%. As for the experimental part: as §1, §2, §3, §4, §5
In turn, `CC(C)(C(=O)NS(=O)(=O)Cc1ccc(C#N)cc1)c1ccc2ccccc2c1` [Compound 54] returned a PP2C Activity (25 μm) PYL5 of 68%.

On to `COc1ccc(C2(C(=O)NS(=O)(=O)Cc3ccc(C#N)cc3)CCCC2)cc1` [Compound 39], for which the PP2C Activity (25 μm) PYL5 came to 110%.

`CC(C)(C(=O)NS(=O)(=O)Cc1ccc(C#N)cc1)c1ccc2c(c1)OCCO2` [Compound 53] showed a PP2C Activity (25 μm) PYL5 of 95%.

For another assay, the system named is Arabidopsis seed germination and hypocotyl growth. The assay can be described thus: Arabidopsis seed germination and hypocotyl growth. It counts as in vivo. The note with it: Germination Inhibition II; tested at 10 and 50 uM; lowest concentration that inhibited hypocotyl growth in wells where seeds germinated; − = none. As for the experimental part:
We germinated seeds from wild type on ½× strength Murashige and Skoog salts growth medium containing either 10 or 50 μM for all 62 compounds as well as 1 μM (+)-ABA and mock controls. […] To investigate if the any of the compounds are sufficient to control vegetative ABA responses, we treated three week old Arabidopsis plants with aqueous solutions containing 0.02% Silwet and either 50 μM of selected N-acylsulfonamides, 50 μM ABA or 0.1% DMSO (the carrier solvent for the compounds tested). The leaf temperatures were subsequently examined using a thermal imaging camera 24 hours after treatment. It is well known that ABA-induced guard cell closure reduces transpiration, which leads to increases in leaf temperatures. It has been estimated that a 1° C. increase in leaf temperature correlates with a decrease in transpiration rates by approximately 50% (Sirault et al., 2009). Since guard cell aperture is the primary determinant of transpiration rates, thermal imaging is a useful way to indirectly infer relative transpiration rates and, indirectly, relative degrees of guard cell opening at the whole plant level.
as §4
For the germination inhibition experiment, the compounds were tested at 10 and 50 uM. The amounts shown are the lowest of the two concentrations that either inhibited germination or hypocotyl growth in wells where seeds germinated.
For the germination test, the compounds were tested at 1, 5, 10, 25 and 50 uM. The amounts shown are the lowest of the concentrations that either inhibited germination or hypocotyl growth in the wells where seeds germinated.
As for `CC(C)(C(=O)NS(=O)(=O)Cc1ccc(C#N)cc1)c1ccc2ccccc2c1` [Compound 54], the “Hypocotyl Growth Inhibition” value was determined as 50 µM.

In the case of `COc1ccc(C2(C(=O)NS(=O)(=O)Cc3ccc(C#N)cc3)CCCC2)cc1` [Compound 39], the “Hypocotyl Growth Inhibition” value was found to be 10 µM.

Consider `CC(C)(C(=O)NS(=O)(=O)Cc1ccc(C#N)cc1)c1ccc2c(c1)OCCO2` [Compound 53], for which the “Hypocotyl Growth Inhibition” value was 50 µM.

Still in this assay, the particulars now being: Germination Inhibition II; tested at 10 and 50 uM; lowest of the two concentrations that inhibited; − = none.
Consider `COc1ccc(C2(C(=O)NS(=O)(=O)Cc3ccc(C#N)cc3)CCCC2)cc1` [Compound 39], for which the “Germination Inhibition” value turned out to be 50 µM.

The assay is the same for the next values; noted with them: Table VIII; tested at 10 or 50 μM, ABA at 1 μM; lowest inhibiting concentration; − = none; read-out: Germination Inhibition.
For the compound `COc1ccc(C2(C(=O)NS(=O)(=O)Cc3ccc(C#N)cc3)CCCC2)cc1` [Compound 39], the minimal effective concentration is on record as 50 µM.

The assay is the same for the next values; noted with them: Table VIII; tested at 10 or 50 μM; lowest inhibiting concentration; − = none; read-out: Hypocotyl Growth Inhibition.
Turning to `CC(C)(C(=O)NS(=O)(=O)Cc1ccc(C#N)cc1)c1ccc2ccccc2c1` [Compound 54], the minimal effective concentration was found to be 50 µM.

Consider `COc1ccc(C2(C(=O)NS(=O)(=O)Cc3ccc(C#N)cc3)CCCC2)cc1` [Compound 39], for which the minimal effective concentration is given as 10 µM.

Turning to `CC(C)(C(=O)NS(=O)(=O)Cc1ccc(C#N)cc1)c1ccc2c(c1)OCCO2` [Compound 53], the minimal effective concentration is recorded as 50 µM.
